For data set [1], the system named is HCT-116. Description: Induction of apoptosis in human p53-null HCT116 -/- cells assessed as early apoptotic cells at 5 uM after 48 hrs by Annexin V-FITC/propidium iodide staining based flow cytometry (reference value: 6.96%). Format: functional.
In data set [2] the test system is HCT-116. In words: Induction of apoptosis in human p53-null HCT116 -/- cells assessed as viable cells at 20 uM after 48 hrs by Annexin V-FITC/propidium iodide staining based flow cytometry (reference value: 85.26%). Format: functional. The conditions noted are these: HCT-116, 48 h, read-out: Activity. For orientation: Flow cytometry measures light scatter and fluorescence of single cells or particles in a stream.

Data set [3] in a line: Decrease in procaspase-9 expression level in human p53-null HCT116 -/- cells at 1 to 20 uM after 24 hrs by western blot analysis. Type of data set: functional, cell-based. Particulars: HCT-116. A general note: In western blotting, separated proteins are transferred to a membrane and probed.
Data set [4] in a line: Cell cycle arrest in human p53-null HCT116 -/- cells assessed as accumulation at G2-phase at 10 uM after 12 hrs by propidium iodide staining based flow cytometry (reference value: 2.35%). Format: functional. Particulars: HCT-116.
Data set [5] concerns HCT-116. In words: Induction of apoptosis in human p53-null HCT116 -/- cells assessed as early apoptotic cells at 20 uM after 48 hrs by Annexin V-FITC/propidium iodide staining based flow cytometry (reference value: 6.96%). Format: functional.
Data set [6] deals with Hypoxia-inducible factor 1-alpha (Homo sapiens) (UniProt Q16665). Description: Inhibition of HIF-1 (unknown origin) expressed in human MCF7 cells co-transfected with hypoxia reporter plasmid p(HRE)3-Luc at 20 uM measured under hypoxia condition after 24 hrs by dual-luciferase reporter assay. Type of data set: cell-based. (In general: A reporter such as luciferase makes a cellular process visible.)

Data set [7] in a line: Antiproliferative activity against human p53-null HCT116 cells assessed as growth inhibition after 72 hrs by MTT assay. Format: functional, cell-based. Particulars: HCT-116, 72 h.
Data set [8] in a line: Cell cycle arrest in human p53-null HCT116 -/- cells assessed as accumulation at S-phase at 20 uM after 12 hrs by propidium iodide staining based flow cytometry (reference value: 69.57%). Type of data set: functional. The conditions noted are these: HCT-116.
The nature of data set [9]: Cell cycle arrest in human p53-null HCT116 -/- cells assessed as accumulation at G2-phase at 20 uM after 12 hrs by propidium iodide staining based flow cytometry (reference value: 2.35%). Type of data set: functional. The conditions noted are these: HCT-116.
Data set [10] relates to HCT-116. In words: Induction of apoptosis in human p53-null HCT116 -/- cells assessed as viable cells at 10 uM after 48 hrs by Annexin V-FITC/propidium iodide staining based flow cytometry (reference value: 85.26%). Format: functional. Particulars: HCT-116, 48 h, read-out: Activity.
The nature of data set [11]: Decrease in procaspase-3 expression level in human p53-null HCT116 -/- cells at 1 to 20 uM after 24 hrs by western blot analysis. Type of data set: functional, cell-based. The conditions noted are these: HCT-116.
Data set [12] concerns HCT-116. Description: Induction of apoptosis in human p53-null HCT116 -/- cells assessed as late apoptotic cells at 10 uM after 48 hrs by Annexin V-FITC/propidium iodide staining based flow cytometry (reference value: 3.11%). Type of data set: functional.
A short description of data set [13]: Cell cycle arrest in human p53-null HCT116 -/- cells assessed as accumulation at G1-phase at 10 uM after 12 hrs by propidium iodide staining based flow cytometry (reference value: 27.78%). Format: functional. The conditions noted are these: HCT-116.
A short description of data set [14]: Antiproliferative activity against human MDA-MB-435S cells assessed as growth inhibition after 72 hrs by MTT assay. Type of data set: functional, cell-based.
Data set [15] relates to HCT-116. Description: Induction of apoptosis in human p53-null HCT116 -/- cells assessed as necrotic cells at 5 uM after 48 hrs by Annexin V-FITC/propidium iodide staining based flow cytometry (reference value: 4.67%). Type of data set: functional.
Data set [16] has as its system HCT-116. In words: Induction of apoptosis in human p53-null HCT116 -/- cells assessed as late apoptotic cells after 48 hrs by Annexin V-FITC/propidium iodide staining based flow cytometry. Format: functional, cell-based.
Data set [17] has as its system HCT-116. Description: Induction of apoptosis in human p53-null HCT116 -/- cells assessed as early apoptotic cells at 10 uM after 48 hrs by Annexin V-FITC/propidium iodide staining based flow cytometry (reference value: 6.96%). Format: functional.
Data set [18] can be described thus: Cell cycle arrest in human p53-null HCT116 -/- cells assessed as accumulation at G1-phase at 5 uM after 12 hrs by propidium iodide staining based flow cytometry (reference value: 27.78%). Type of data set: functional. The conditions noted are these: HCT-116.
For data set [19], the target named is Hypoxia-inducible factor 1-alpha (Homo sapiens) (UniProt Q16665). Description: Inhibition of HIF1 in human MCF7 cells assessed as reduction in VEGF mRNA expression after 24 hrs under hypoxia condition by real-time PCR analysis. Format: cell-based.
Data set [20] can be described thus: Antiproliferative activity against human HCT116 cells expressing wild type p53 assessed as growth inhibition after 72 hrs by MTT assay. Type of data set: functional, cell-based. The conditions noted are these: HCT-116, 72 h.
The test system of data set [21] is HCT-116. Description: Induction of apoptosis in human p53-null HCT116 -/- cells assessed as necrotic cells at 10 uM after 48 hrs by Annexin V-FITC/propidium iodide staining based flow cytometry (reference value: 4.67%). Format: functional.
Data set [22] in a line: Cell cycle arrest in human p53-null HCT116 -/- cells assessed as accumulation at S-phase at 10 uM after 12 hrs by propidium iodide staining based flow cytometry (reference value: 69.57%). The conditions noted are these: HCT-116. Type of data set: functional.
Data set [23] deals with HCT-116. Description: Induction of apoptosis in human p53-null HCT116 -/- cells assessed as late apoptotic cells at 20 uM after 48 hrs by Annexin V-FITC/propidium iodide staining based flow cytometry ( Rvb = 3.11%). Type of data set: functional.
Data set [24] relates to HCT-116. Description: Induction of apoptosis in human p53-null HCT116 -/- cells assessed as late apoptotic cells at 5 uM after 48 hrs by Annexin V-FITC/propidium iodide staining based flow cytometry (reference value: 3.11%). Format: functional.
In data set [25] the test system is HCT-116. Description: Induction of apoptosis in human p53-null HCT116 -/- cells assessed as morphological change at 5 to 20 uM after 48 hrs by Annexin V-FITC/propidium iodide staining based flow cytometry. Type of data set: functional, cell-based.
Data set [26] in a line: Cell cycle arrest in human p53-null HCT116 -/- cells assessed as accumulation at S-phase at 5 uM after 12 hrs by propidium iodide staining based flow cytometry (reference value: 69.57%). Type of data set: functional. The conditions noted are these: HCT-116.
Data set [27] can be described thus: Cell cycle arrest in human p53-null HCT116 -/- cells assessed as accumulation at G1-phase after 12 hrs by propidium iodide staining based flow cytometry. Format: functional. Particulars: HCT-116.
In data set [28] the test system is HCT-116. In words: Induction of apoptosis in human p53-null HCT116 -/- cells assessed as viable cells at 5 uM after 48 hrs by Annexin V-FITC/propidium iodide staining based flow cytometry (reference value: 85.26%). Format: functional. The conditions noted are these: HCT-116, 48 h, read-out: Activity.
Data set [29] relates to HCT-116. Description: Induction of apoptosis in human p53-null HCT116 -/- cells assessed as early apoptotic cells after 48 hrs by Annexin V-FITC/propidium iodide staining based flow cytometry. Format: functional, cell-based.
Data set [30] can be described thus: Cell cycle arrest in human p53-null HCT116 -/- cells assessed as accumulation at G1-phase at 20 uM after 12 hrs by propidium iodide staining based flow cytometry (reference value: 27.78%). Format: functional. Particulars: HCT-116.
The subject of data set [31] is MCF7. Description: Antiproliferative activity against human MCF7 cells assessed as growth inhibition after 72 hrs by MTT assay. Format: functional, cell-based. Particulars: MCF7, 72 h.
Data set [32] can be described thus: Cell cycle arrest in human p53-null HCT116 -/- cells assessed as accumulation at G2-phase at 5 uM after 12 hrs by propidium iodide staining based flow cytometry (reference value: 2.35%). Format: functional. The conditions noted are these: HCT-116.
Data set [33] concerns HCT-116. In words: Induction of apoptosis in human p53-null HCT116 -/- cells assessed as necrotic cells at 20 uM after 48 hrs by Annexin V-FITC/propidium iodide staining based flow cytometry (reference value: 4.67%). Type of data set: functional.
Data set [34] relates to MCF7. Description: Cytotoxicity against human MCF7 cells co-transfected with hypoxia reporter plasmid p(HRE)3-Luc at 20 uM. Type of data set: cell-based. Particulars: mcf7, 20 µM.
Data set [35] addresses Hypoxia-inducible factor 1-alpha (Homo sapiens) (UniProt Q16665). Description: Inhibition of HIF-1 (unknown origin) expressed in human MCF7 cells co-transfected with hypoxia reporter plasmid p(HRE)3-Luc at 10 uM measured under hypoxia condition after 24 hrs by dual-luciferase reporter assay. Type of data set: cell-based.

SMILES strings stand for the structures. Activity calls are given as the source filed them. The rule behind the calls is not given here.

Sequence of Hypoxia-inducible factor 1-alpha (Homo sapiens) (Q16665 whole entry, looked up): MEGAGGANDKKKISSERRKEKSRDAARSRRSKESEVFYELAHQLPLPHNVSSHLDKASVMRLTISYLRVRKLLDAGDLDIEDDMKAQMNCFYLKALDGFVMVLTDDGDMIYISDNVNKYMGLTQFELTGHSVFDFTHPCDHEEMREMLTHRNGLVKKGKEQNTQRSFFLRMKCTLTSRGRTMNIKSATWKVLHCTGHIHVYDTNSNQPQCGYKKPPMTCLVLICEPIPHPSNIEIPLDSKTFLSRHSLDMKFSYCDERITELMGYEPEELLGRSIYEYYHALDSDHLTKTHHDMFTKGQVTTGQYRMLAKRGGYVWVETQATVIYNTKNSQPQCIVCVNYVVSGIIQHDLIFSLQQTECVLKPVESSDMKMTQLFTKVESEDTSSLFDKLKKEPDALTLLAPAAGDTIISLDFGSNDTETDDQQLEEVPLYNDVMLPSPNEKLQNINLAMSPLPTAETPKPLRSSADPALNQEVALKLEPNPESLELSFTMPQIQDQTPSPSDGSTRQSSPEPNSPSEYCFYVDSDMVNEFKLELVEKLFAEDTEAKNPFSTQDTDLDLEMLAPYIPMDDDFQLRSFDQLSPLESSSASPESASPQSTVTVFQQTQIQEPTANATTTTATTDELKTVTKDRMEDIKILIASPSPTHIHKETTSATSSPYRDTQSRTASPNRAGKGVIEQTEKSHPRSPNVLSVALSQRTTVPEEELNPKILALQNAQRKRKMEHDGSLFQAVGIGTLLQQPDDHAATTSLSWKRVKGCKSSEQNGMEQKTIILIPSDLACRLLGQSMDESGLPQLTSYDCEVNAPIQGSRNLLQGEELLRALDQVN

Broadly, the inhibition is the relative decrease from the control value, in per cent. In general, IC50 refers to the concentration that gives 50% inhibition. With `CNCCNC(=O)c1oc2ccc(N(Cc3ccccc3)S(=O)(=O)c3ccc(Cl)cc3)cc2c1C`, the Activity was 15.42% in the data set on HCT-116 [1]; 4.26% in data set [4]; 62.28% with HCT-116 [5]; 32.2% in [8]; 8.1% in data set [9]; 14.99% with HCT-116 [12]. Besides, the Activity in data set [13] is 52.8%; in the data set with HCT-116 [15], 0.5%; with HCT-116 [16], “Dose-dependent effect”; with HCT-116 [17] it was 55.86%; in data set [18] it was 36.2%; with HCT-116 [21], 1.05%. Moreover, the Activity in data set [22] is 42.9%; with HCT-116 [23], 34.63%; in the data set with HCT-116 [24], 6.74%; in data set [26], 60.2%; in data set [27], “Dose-dependent effect”; in the data set with HCT-116 [29], “Dose-dependent effect”. Also, the Activity is 59.7% in data set [30], 3.6% in [32] and 0.02% in the data set on HCT-116 [33]. In addition, the viability at 20 µM in the data set on HCT-116 [2] is 3.07%. The inhibition entry in data set [3] and in data set [11] was “Active” in each case. In addition, the values for the inhibition in data set [6] and in [19] were 47.3% and “Dose-dependent effect”, respectively. Also, the IC50 came to 2.91 µM in data set [7], 4.71 µM in data set [14], 3 µM in [20] and 4.56 µM with MCF7 [31]. The viability at 10 µM in the data set with HCT-116 [10] amounted to 28.1%. For the same molecule, the result with HCT-116 [25] was Active. Besides, the viability at 5 µM with HCT-116 [28] turned out to be 77.3%.
With `CNCCNC(=O)c1oc2ccc(N(Cc3ccc(Cl)cc3)S(=O)(=O)c3ccc(Cl)cc3)cc2c1C`, in the data set with MCF7 [34], the Activity entry is “Toxic”. For the same molecule, the IC50 in data set [7] is 4.03 µM; in data set [14], 1.63 µM; in data set [20], 1.81 µM; in the data set with MCF7 [31], 5.67 µM. This molecule came in with an inhibition in [35] of 22.2%.

For the origin of these results see ChEMBL document CHEMBL3804813, “Discovery and optimization of new benzofuran derivatives against p53-independent malignant cancer cells through inhibition of HIF-1 pathway” (Bioorg Med Chem Lett, 2016).
